Reference: PubChem BioAssay AID248 (DTP/NCI, 2004)
Toxic doses and inconclusive results are not listed.

Tested on: L1210 leukemia ip in BDF1 mice, survival T/C
Experiment: NCI In Vivo Anticancer Drug Screen. Data for tumor model L1210 Leukemia (intraperitoneal) in B6D2F1 (BDF1) mice
Conditions: endpoint: mean survival time, higher = longer survival
How it was run: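 Tumor was transplanted into mice, which were then dosed with test compound or vehicle alone. Survival was recorded for each group, and the treated figure was expressed relative to the control figure.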

[1] = dose: 100.0 mg/kg/injection, schedule: Q01DX009 (ip), vehicle: Klucel (hydroxypropylcellulose) (HPC)
[2] = dose: 100.0 mg/kg/injection, schedule: Q04DX003 (ip), vehicle: Klucel (hydroxypropylcellulose) (HPC)
[3] = dose: 200.0 mg/kg/injection, schedule: Q01DX009 (ip), vehicle: Klucel (hydroxypropylcellulose) (HPC)
[4] = dose: 200.0 mg/kg/injection, schedule: Q04DX003 (ip), vehicle: Klucel (hydroxypropylcellulose) (HPC)
[5] = dose: 400.0 mg/kg/injection, schedule: Q01DX009 (ip), vehicle: Klucel (hydroxypropylcellulose) (HPC)
[6] = dose: 400.0 mg/kg/injection, schedule: Q04DX003 (ip), vehicle: Klucel (hydroxypropylcellulose) (HPC)
[7] = dose: 50.0 mg/kg/injection, schedule: Q01DX001 (ip), vehicle: saline
[8] = dose: 100.0 mg/kg/injection, schedule: Q01DX001 (ip), vehicle: saline
[9] = dose: 200.0 mg/kg/injection, schedule: Q01DX001 (ip), vehicle: saline
[10] = dose: 400.0 mg/kg/injection, schedule: Q01DX001 (ip), vehicle: saline
[11] = dose: 100.0 mg/kg/injection, schedule: Q01DX009 (ip), vehicle: saline
[12] = dose: 100.0 mg/kg/injection, schedule: Q04DX003 (ip), vehicle: saline
[13] = dose: 200.0 mg/kg/injection, schedule: Q01DX009 (ip), vehicle: saline
[14] = dose: 200.0 mg/kg/injection, schedule: Q04DX003 (ip), vehicle: saline
[15] = dose: 400.0 mg/kg/injection, schedule: Q01DX009 (ip), vehicle: saline
[16] = dose: 400.0 mg/kg/injection, schedule: Q04DX003 (ip), vehicle: saline
[17] = dose: 100.0 mg/kg/injection, schedule: Q01DX001 (ip), vehicle: Klucel (hydroxypropylcellulose) (HPC)
[18] = dose: 50.0 mg/kg/injection, schedule: Q01DX001 (ip), vehicle: other
[19] = dose: 100.0 mg/kg/injection, schedule: Q01DX001 (ip), vehicle: other

Compound: COc1ccc(OC)c(N=CC(=O)c2ccc(C)cc2)c1
- T/C (dose: 75.0 mg/kg/injection, schedule: Q04DX003 (ip), vehicle: Klucel (hydroxypropylcellulose) (HPC)): 95 % of control
- T/C (dose: 150.0 mg/kg/injection, schedule: Q04DX003 (ip), vehicle: Klucel (hydroxypropylcellulose) (HPC)): 94 % of control
- T/C (dose: 300.0 mg/kg/injection, schedule: Q04DX003 (ip), vehicle: Klucel (hydroxypropylcellulose) (HPC)): 97 % of control

Compound: O=C(c1ccccc1)C1C(c2ccccc2)N1CCl (configuration not stated)
- T/C [1]: 98 % of control
- T/C [2]: 92 % of control
- T/C [3]: 94 % of control
- T/C [4]: 105 % of control
- T/C [5]: 100 % of control
- T/C [6]: 107 % of control

Compound: CCOC(=O)c1ccc(NC(=S)Nc2ncccc2C)cc1
- T/C (dose: 100.0 mg/kg/injection, schedule: Q04DX002 (ip), vehicle: saline with Tween-80): 103 % of control
- T/C (dose: 200.0 mg/kg/injection, schedule: Q04DX002 (ip), vehicle: saline with Tween-80): 103 % of control
- T/C (dose: 400.0 mg/kg/injection, schedule: Q04DX002 (ip), vehicle: saline with Tween-80): 95 % of control

Compound: CN(C)c1ccc([N+](=O)[O-])c2c1CCC2
- T/C [7]: 111 % of control
- T/C [8]: 90 % of control
- T/C [9]: 106 % of control
- T/C [10]: 106 % of control

Compound: ClCc1ccccn1
- T/C [11]: 92 % of control
- T/C [12]: 98 % of control
- T/C [13]: 95 % of control
- T/C [14]: 101 % of control
- T/C [15]: 89 % of control
- T/C [16]: 94 % of control

Compound: CCOC(=O)NC(CC)c1ccc2oc3ccccc3c2c1 (configuration not stated)
- T/C [17]: 98 % of control
- T/C [1]: 90 % of control
- T/C (dose: 200.0 mg/kg/injection, schedule: Q01DX001 (ip), vehicle: Klucel (hydroxypropylcellulose) (HPC)): 103 % of control
- T/C [3]: 94 % of control
- T/C (dose: 400.0 mg/kg/injection, schedule: Q01DX001 (ip), vehicle: Klucel (hydroxypropylcellulose) (HPC)): 108 % of control
- T/C [5]: 95 % of control

Compound: CCc1ccc(/C=C/c2ccc[nH]2)[n+](C)c1
- T/C (dose: 5.0 mg/kg/injection, schedule: Q01DX001 (ip), vehicle: carboxymethylcellulose (CMC)): 94 % of control
- T/C (dose: 10.0 mg/kg/injection, schedule: Q01DX001 (ip), vehicle: carboxymethylcellulose (CMC)): 94 % of control
- T/C (dose: 20.0 mg/kg/injection, schedule: Q01DX001 (ip), vehicle: carboxymethylcellulose (CMC)): 89 % of control
- T/C (dose: 40.0 mg/kg/injection, schedule: Q01DX001 (ip), vehicle: carboxymethylcellulose (CMC)): 96 % of control
- T/C (dose: 80.0 mg/kg/injection, schedule: Q01DX001 (ip), vehicle: carboxymethylcellulose (CMC)): 91 % of control

Compound: CCCOP(=O)(CCl)OCCC
- T/C [12]: 101 % of control
- T/C [14]: 104 % of control
- T/C [16]: 101 % of control

Compound: Clc1ccc(/C=N/Nc2nc3ccccc3s2)cc1Cl
- T/C (dose: 40.0 mg/kg/injection, schedule: Q01DX Z (ip), vehicle: methylcellulose (MC)): 88 % of control
- T/C (dose: 60.0 mg/kg/injection, schedule: Q01DX Z (ip), vehicle: methylcellulose (MC)): 103 % of control
- T/C (dose: 90.0 mg/kg/injection, schedule: Q01DX Z (ip), vehicle: methylcellulose (MC)): 94 % of control

Compound: CS(=O)(=O)OCCN(CCOS(C)(=O)=O)c1ccc(C(=O)O)cc1
- T/C (dose: 42.0 mg/kg/injection, schedule: Q01DX015 (ip), vehicle: other): 108 % of control
- T/C [18]: 115 % of control
- T/C (dose: 66.0 mg/kg/injection, schedule: Q01DX015 (ip), vehicle: saline): 120 % of control
- T/C (dose: 72.0 mg/kg/injection, schedule: Q01DX015 (ip), vehicle: other): 121 % of control
- T/C [19]: 115 % of control
- T/C (dose: 100.0 mg/kg/injection, schedule: Q01DX015 (ip), vehicle: saline): 122 % of control
- T/C (dose: 120.0 mg/kg/injection, schedule: Q01DX015 (ip), vehicle: other): 116 % of control
- T/C (dose: 150.0 mg/kg/injection, schedule: Q01DX015 (ip), vehicle: saline): 117 % of control
- T/C (dose: 177.0 mg/kg/injection, schedule: Q01DX001 (ip), vehicle: other): 118 % of control
- T/C (dose: 177.0 mg/kg/injection, schedule: Q01DX001 (ip), vehicle: saline): 117 % of control
- T/C (dose: 177.0 mg/kg/injection, schedule: Q01DX015 (ip), vehicle: other): 93 % of control
- T/C (dose: 220.0 mg/kg/injection, schedule: Q01DX015 (ip), vehicle: saline): 86 % of control
- T/C (dose: 267.0 mg/kg/injection, schedule: Q01DX001 (ip), vehicle: other): 118 % of control
- T/C (dose: 267.0 mg/kg/injection, schedule: Q01DX001 (ip), vehicle: saline): 110 % of control

Compound: O=C(Nc1cccc2ncccc12)c1ccc(C(=O)Nc2cccc3ncccc23)cc1
- T/C [8]: 101 % of control
- T/C [9]: 93 % of control
- T/C [10]: 91 % of control

Compound: CC(=O)OCC1OC(n2cnc([N+](=O)[O-])c2Br)C(OC(C)=O)C1OC(C)=O (configuration not stated)
- T/C [7]: 98 % of control
- T/C [8]: 98 % of control
- T/C [9]: 102 % of control
- T/C [10]: 102 % of control

Compound: Nc1nc(=S)c2[nH]c(N=Nc3ccc(S(=O)(=O)Nc4cnc5ccccc5n4)cc3)nc2[nH]1
- T/C (dose: 25.0 mg/kg/injection, schedule: Q01DX009 (ip), vehicle: Klucel (hydroxypropylcellulose) (HPC)): 112 % of control
- T/C (dose: 50.0 mg/kg/injection, schedule: Q01DX009 (ip), vehicle: Klucel (hydroxypropylcellulose) (HPC)): 109 % of control
- T/C [1]: 91 % of control

Compound: CCCCCCCCCCCCCCCCc1c(C)ncn(C)c1=O
- T/C [2]: 98 % of control
- T/C [4]: 101 % of control
- T/C [6]: 95 % of control

Compound: COC(=O)/C=C/c1ccc(Cl)cc1
- T/C [1]: 98 % of control
- T/C [3]: 96 % of control
- T/C [5]: 96 % of control

Compound: C[Si](C)(C)c1cc(F)c(F)c(F)c1F
- T/C [1]: 100 % of control
- T/C [2]: 97 % of control
- T/C [3]: 102 % of control
- T/C [4]: 102 % of control
- T/C [5]: 98 % of control
- T/C [6]: 103 % of control

Compound: O=NN(CCCl)C(=O)Nc1ccc(NC(=O)N(CCCl)N=O)cc1
- T/C [8]: 201 % of control
- T/C [9]: 182 % of control
- T/C (dose: 300.0 mg/kg/injection, schedule: Q01DX001 (ip), vehicle: saline): 230 % of control
- T/C [10]: 264 % of control
- T/C (dose: 500.0 mg/kg/injection, schedule: Q01DX001 (ip), vehicle: saline): 285 % of control
- T/C (dose: 600.0 mg/kg/injection, schedule: Q01DX001 (ip), vehicle: saline): 300 % of control
- T/C (dose: 800.0 mg/kg/injection, schedule: Q01DX001 (ip), vehicle: saline): 291 % of control
- T/C (dose: 1000.0 mg/kg/injection, schedule: Q01DX001 (ip), vehicle: saline): 268 % of control

Compound: CCOC(CCC#N)c1ccc(C)cc1 (configuration not stated)
- T/C (dose: 100.0 mg/kg/injection, schedule: Q04DX003 (ip), vehicle: saline with Tween-80): 113 % of control
- T/C (dose: 118.0 mg/kg/injection, schedule: Q01DX009 (ip), vehicle: saline with Tween-80): 108 % of control
- T/C (dose: 200.0 mg/kg/injection, schedule: Q04DX003 (ip), vehicle: saline with Tween-80): 98 % of control
- T/C (dose: 235.0 mg/kg/injection, schedule: Q01DX009 (ip), vehicle: saline with Tween-80): 97 % of control
- T/C (dose: 400.0 mg/kg/injection, schedule: Q04DX003 (ip), vehicle: saline with Tween-80): 95 % of control

Compound: Cc1cc2cccc(CN)c2cc1C
- T/C [17]: 93 % of control

Compound: Cn1c(=O)c2[nH]c(CS(=O)(=O)Cc3nc4c([nH]3)c(=O)n(C)c(=O)n4C)nc2n(C)c1=O
- T/C [18]: 90 % of control
- T/C [19]: 101 % of control
- T/C (dose: 200.0 mg/kg/injection, schedule: Q01DX001 (ip), vehicle: other): 95 % of control
- T/C (dose: 400.0 mg/kg/injection, schedule: Q01DX001 (ip), vehicle: other): 92 % of control

Compound: COc1ccc(Br)cc1C1(O)C2C=CC1CC2 (configuration not stated)
- T/C [1]: 102 % of control
- T/C [3]: 102 % of control
- T/C [5]: 98 % of control

Compound: CC1=CC(C)(C)Nc2ccccc21
- T/C [11]: 118 % of control
- T/C [12]: 106 % of control
- T/C [13]: 103 % of control
- T/C [14]: 101 % of control
- T/C [15]: 116 % of control
- T/C [16]: 91 % of control
